In US8901345B2, “Process for preparation of optically active diamine derivative salt” (Daiichi Sankyo Company, Limited, priority 2010, dated 2014):
Entries after “also recorded” stand apart in the source; their conditions may differ. Counter-ions that a name gives are not always drawn.

Key:
Assay type in all cases: physicochemical
[1] = Comparison of water solubility of crystals in hydrous toluene/acetonitrile; details: compared with monohydrate crystals of (1b) in the cis-form; water added to a 13% toluene/acetonitrile solution to change percentage water content
Description: Water was added to a 13% toluene/acetonitrile solution to change the percentage water content to compare water solubility between the monohydrate crystals of the compound represented by formula (1b) and the monohydrate crystals of the trans-isomer compound represented by formula (1b-trans).

[2] = Crystal form transformation (solid form stability) of crystal polymorphs; details: for transformation of anhydrous crystals to monohydrate crystals: stirring at 25° C., depending on the percentage water content of the mother liquor, oxalate
Description: The Form 2 anhydrous crystals were also found to be excellent in operability such as filtration performance. Powder x-ray diffraction diagrams of the Form 1 and Form 2 anhydrous crystals of compound (1) are shown in FIGS. 1 and 2, respectively, and their diffraction diagrams based on thermal analysis are shown in FIGS. 5 and 6, respectively.
Compound (1a) was treated with anhydrous oxalic acid in 6% hydrous acetonitrile to obtain two crystal polymorphs of monohydrate crystals of the title compound represented by formula (1b) (this production method is described in Example 3 below). Powder x-ray diffraction diagrams of the Form 1 and Form 2 monohydrate crystals are shown in FIGS. 3 and 4, respectively, and their diffraction diagrams based on thermal analysis are shown in FIGS. 7 and 8, respectively.

[3] = Hygroscopicity of crystal polymorphs; details: among the crystal polymorphs of anhydrous crystals of compound (1)

CN(C)C(=O)[C@H]1CC[C@@H](N)[C@H](NC(=O)OC(C)(C)C)C1 [(1b-trans)]
water solubility [1]: highly water-soluble; also recorded: more water-soluble

CN(C)C(=O)[C@H]1CC[C@H](N)[C@H](NC(=O)OC(C)(C)C)C1 [Form 1 anhydrous crystals, tert-butyl {(1R,2S,5S)-2-amino-5-[(dimethylamino)carbonyl]cyclohexyl}carbamate oxalate]
transformation of anhydrous crystals to monohydrate crystals [2]: transformed to monohydrate crystals

CN(C)C(=O)[C@H]1CC[C@H](N)[C@H](NC(=O)OC(C)(C)C)C1 [Form 1 monohydrate crystals, tert-butyl {(1R,2S,5S)-2-amino-5-[(dimethylamino)carbonyl]cyclohexyl}carbamate oxalate monohydrate]
crystal transformation when left standing ([2]; left at room temperature for approximately 2 hours): transformed to Form 2 monohydrate crystals

CN(C)C(=O)[C@H]1CC[C@H](N)[C@H](NC(=O)OC(C)(C)C)C1 [Form 2 anhydrous crystals, tert-butyl {(1R,2S,5S)-2-amino-5-[(dimethylamino)carbonyl]cyclohexyl}carbamate oxalate]
transformation of anhydrous crystals to monohydrate crystals [2]: hardly transformed to monohydrate crystals | hygroscopicity [3]: much less hygroscopic
